# Literature values as cited in US20060217894A1, “Use of computationally derived protein structures of genetic polymorphisms in pharmacogenomics for drug design and clinical applications” (priority 1999, published 2006).
# pIC50: −log10 of the molar value.
# Molecular target: NS3 protease (Hepatitis C virus genotype 1b, UniProt P26663)
# Conditions: values obtained from literature (Ingallinella et al. 1998)
# NS3 protease, sequence (P26663 1027-1657, other chains not shown): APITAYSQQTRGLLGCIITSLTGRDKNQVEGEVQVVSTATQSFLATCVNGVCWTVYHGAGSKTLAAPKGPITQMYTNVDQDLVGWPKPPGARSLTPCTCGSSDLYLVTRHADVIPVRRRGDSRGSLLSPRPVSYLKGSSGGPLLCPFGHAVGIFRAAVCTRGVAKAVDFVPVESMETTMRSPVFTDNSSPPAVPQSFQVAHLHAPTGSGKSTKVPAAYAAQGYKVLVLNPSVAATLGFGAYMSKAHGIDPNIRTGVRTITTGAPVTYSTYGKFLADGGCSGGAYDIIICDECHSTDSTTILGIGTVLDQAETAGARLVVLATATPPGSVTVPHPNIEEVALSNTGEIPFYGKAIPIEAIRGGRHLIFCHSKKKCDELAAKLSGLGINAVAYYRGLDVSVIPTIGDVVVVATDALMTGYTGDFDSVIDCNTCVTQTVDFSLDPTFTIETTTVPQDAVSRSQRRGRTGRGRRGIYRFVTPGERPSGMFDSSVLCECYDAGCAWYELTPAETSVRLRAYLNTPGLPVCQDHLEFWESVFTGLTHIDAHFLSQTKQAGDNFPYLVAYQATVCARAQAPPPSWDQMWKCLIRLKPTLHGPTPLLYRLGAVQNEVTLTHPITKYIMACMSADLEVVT
row,Substance,pIC50
1,Ac-Asp^1-D-Glu^2-Leu^3-Ile^4-Cha^5-Cys^6-COO-,7.82
2,Ac-Asp^1-L-Glu^2-Leu^3-Ile^4-Cha^5-Cys^6-COO-,7.22
